{
  "source": "patent US20260337177A1",
  "about": "“TEAD CORE INHIBITORS FOR CANCER THERAPEUTICS” (University of Florida Research Foundation, Incorporated, priority 2023, published 2026)",
  "key": {"AML12 cells": {"system": "AML12 cells", "experiment": "AML12 normal liver cell growth inhibition (CCK8)", "assay_type": "cell-based"}, "Hs578T cells": {"system": "Hs578T cells", "experiment": "Hs578T cell growth inhibition (CCK-8, 3 days)", "assay_type": "cell-based", "conditions": "Homo sapiens, Hs-578T, 72 h, triple negative breast cancer, read-out: Antiproliferative IC50, Hs578T", "method": "The inhibitory effects of compound 22 were assessed against YAP TEAD related NF2-deficient mesothelioma cell NCI-H226 and triple negative breast cancer cell Hs578T. The growth inhibition ratio was measured using a CCK-8 assay after 3 days of treatments."}, "TEAD2-YBD C380S": {"biological_target": "TEAD2-YBD C380S (Homo sapiens, UniProt Q15562, C380S)", "sequence (Q15562 217-447 C380S)": "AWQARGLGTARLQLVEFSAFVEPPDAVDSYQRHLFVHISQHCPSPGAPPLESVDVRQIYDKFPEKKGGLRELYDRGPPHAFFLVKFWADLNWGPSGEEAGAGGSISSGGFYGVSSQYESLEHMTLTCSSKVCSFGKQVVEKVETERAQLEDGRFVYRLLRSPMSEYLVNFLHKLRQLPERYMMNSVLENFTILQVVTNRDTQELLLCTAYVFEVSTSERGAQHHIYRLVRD", "experiment": "Intact protein mass spectrometry, TEAD2-YBD C380S variant", "assay_type": "binding", "conditions": "15 hours", "text": "To substantiate the covalent interaction between Compound 22 and TEAD2-YBD, intact mass spectrometry was employed to monitor the protein's mass change upon binding with the compound.\nHuman TEAD2-YBD (217-447) (TEAD2_HUMAN, UniProtKB Q15562) was expressed and purified as previously described.^79 To eliminate endogenous palmitoylation, Cys380Ser mutant (TEAD2-C380S) was generated and purified using the same protocol. [00392]hTEAD2 was expressed, purified, and deacylated as reported.^52 Briefly, the yap-binding domain (YBD) of […] was cloned in pET28a vector with the N terminal 6x His tag. The recombinant protein was induced at 16 ° C using 0.2 mM isopropyl bD-1-thiogalactopyranoside (IPTG) for 10 h for overexpression in Escherichia coli strain BL2 (DE3) CodonPlus competent cells (Invitrogen). Then cells were harvested, followed by lysis and the supernatant was loaded onto the HisTrap FF column (GE Healthcare). The hTEAD4-YBD was eluted with elution buffer (50 mM Hepes 8.0, 300 mM NaCl, 10% Glycerol, 1 mM TCEP, 125 mM imidazole). To eliminate the endogenous fatty acid, the protein was incubated with 0.2 mM hydroxylamine for 2 h and further purified through gel filtration chromatography in the final buffer (25 mM Hepes pH 8.0, 100 mM NaCl, 1 mM TCEP, and 5% glycerol). Collected fractions were concentrated to 5 mg/mL and flash frozen for further use. […]"}, "HepG2 cells [1]": {"system": "HepG2 cells", "experiment": "HepG2 cell growth inhibition", "assay_type": "cell-based", "conditions": "Homo sapiens, FIG. 25A"}, "HepG2 cells [2]": {"system": "HepG2 cells", "experiment": "Colony formation (clonogenic) assay, HepG2", "assay_type": "cell-based", "conditions": "Homo sapiens, 48 h, read-out: Colony formation, rate of inhibition, HepG2", "method": "The ability of compound 22 to inhibit the proliferation of liver cancer cell lines Huh7 and HepG2 was further assessed using a clonogenic assay.\nHuh7 or HepG2 (500 cells/well) were plated into 6 well plates (500 cells per well) and treated with 0 or 5 μM compound 22. Colonies were grown in the absence of soft agar for 2 weeks in a humidified atmosphere of 5% C02 at 37 ° C Crystal violet blue solution (Sigma) was used to stain the colonies for one hour and fixed in methanol followed by counting under a microscope. Triplicate wells were used for each cell line and three independent experiments were performed."}, "HepG2 cells [3]": {"system": "HepG2 cells", "experiment": "Cell cycle analysis by flow cytometry, HepG2", "assay_type": "cell-based, human", "conditions": "5 and 10 μM", "method": "To study the potential mechanistic pathways responsible for cell proliferation inhibition by compound 22, the change of cell cycle in Huh7 and HepG2 liver cancer cell lines was evaluated. DNA-based cell cycle analysis was performed using flow cytometry. […] To explore whether compound 22 also induces G1 phase arrest in HepG2 cells similar to its effects on Huh7 cells, parallel investigations were performed. […] However, the impact of 22 on inducing G1 phase arrest was less pronounced in HepG2 cells compared to Huh7 cells.\nFor cell cycle analysis, cells were fixed with pre-cold 70% ethanol for 30 minutes. Then the cells were washed with PBS and stained with propidium iodide working solution for 30 minutes in the dark. The stained cells were analyzed by flow cytometry. Cell cycle distribution was analyzed using FlowJo_V10 software. For each experiment, 20000 events per sample were recorded. Percentages of cells in G0/G1, S and G2/M phases were calculated and shown in DNA histograms."}, "CYR61": {"system": "CYR61", "experiment": "CYR61 mRNA expression by RT-qPCR in Huh7 cells", "assay_type": "cell-based, human", "conditions": "dose-dependent", "method": "Huh7 and HepG2 liver cancer cells were seeded at 1×10^6 cells/dish and allowed to adhere overnight. The cells were then treated with indicated doses of compounds in medium for 24 hours. The cells were then harvested, and total RNA was purified using the Aurum total RNA mini kit (Bio-Rad #732-6820) according to the manufacturer's instructions. Complementary DNA was synthesized from 500 ng total RNA template by iScript reverse transcription kit (Bio-Rad #1725037) according to the manufacturer's instructions. Real-time PCR reactions utilized 60 ng cDNA and PrimePCR primers from Bio-Rad (Unique Assay ID: human GAPDH-qHsaCEP0041396, human CTGF-qHsaCEP0024255, human CYR61-qHsaCEP0024230) designed for SYBR Green gene expression analysis (Bio-Rad #1726270). All reactions were carried out in triplicate using Quant Studio 3 PCR system (Applied Biosystems). Relative gene expression level was quantified via ΔΔCt method by using GAPDH as an endogenous reference."}},
  "data": [
    {"smiles": "O=C(CCl)c1c[nH]c2cc(Cl)c(OCc3cccc(C(F)(F)F)c3)cc12", "note": "[Compound 22, 2-chloro-1-(6-chloro-5-((3-(trifluoromethyl)benzyl)oxy)-1H-indol-3-yl)ethan-1-one]", "values": [
      {"measurement": "Toxicity towards normal liver cell line AML12", "setting": "AML12 cells", "value": "least toxic"},
      {"measurement": "Inhibitory rate, AML12 (inhibitory percentage of AML12 cell growth)", "setting": "AML12 cells; 10 μM, 3 days", "value": 22.1, "unit": "%"},
      {"measurement": "IC50", "setting": "Hs578T cells", "value": 2600, "unit": "nM"},
      {"measurement": "Mass shift of TEAD2-YBD C380S variant", "setting": "TEAD2-YBD C380S", "value": "absence of a mass shift"},
      {"measurement": "IC50", "setting": "HepG2 cells [1]", "value": 2400, "unit": "nM"},
      {"measurement": "inhibition at 5 µM", "setting": "HepG2 cells [2]", "value": 59.5, "unit": "%"},
      {"measurement": "Accumulation in G1 phase, HepG2", "setting": "HepG2 cells [3]", "value": "accumulation of HepG2 cells in the G1 phase"},
      {"measurement": "CYR61 mRNA expression, Huh7", "setting": "CYR61", "value": "significantly inhibited"}
    ]}
  ]
}
